Results reported in patent US5354747A, “2-, 3-, 4-, 5-, 6-, 7-, 8-, 9- and/or 10-substituted dibenzoxazepine and dibenzthiazepine compounds, pharmaceutical compositions and methods of use” (G. D. Searle & Co., priority 1993, dated 1994).
Structures can show the parent of a compound that is named as a salt.

Assays:
[1] = system: Charles River male albino mice; assay: Writhing Assay (PBQ-induced writhing, analgesic activity); assay type: in vivo; settings: Intragastric; for responders at 30 mg/kg: 25 min, read-out: number of mice out of nine or ten in which a test compound produced analgesia (converted)
Text: The Writhing Assay is one of the most widely-used experimental procedures for measuring the analgesic activity of different narcotic and nonnarcotic analgesic agents, and involves the continuous, chemically-induced pain of visceral origin to an animal, such as a mouse or rat. [Gyires et al., Arch. int. Pharmacodyn, 267, 131-140 (1984); […] al., Fed. Proc., 15, 494 (1956); Koster et al., Fed. Proc., 18, 412 (1959); and Witken et al., J. Pharmacol. exp. Ther., 133, 400-408 (1961).] Chemicals which may be used to induce this pain include phenylbenzoquinone (PBQ) and acetic acid. As a result of the chemical irritation to the animal, a characteristic stretching and writhing of the animal (dorsiflexion of the animal's back, extension of its hindlimbs and the strong contraction of its abdominal musculature) will generally occur. […] Drugs which reduce the number of writhes of the animal appear to restore the normal nociceptive threshold of the animal. Charles River male albino mice, weighing 20 to 30 grams were used in this assay. Twenty-five minutes after intragastric administration to nine or ten mice of 30 mg per kilogram of body weight of a compound of the present invention ("test compound"), […] of body weight of a 0.025% w/v solution of PBQ was injected intraperitoneally into each mouse. Ten mice which were given saline in place of a test compound of the invention were used as a control group. Five minutes later, each mouse was individually placed into a glass beaker for observation, and the number of writhes occurring during the following ten-minute period was counted. A test compound was considered to have produced analgesia in a mouse if, in accordance with the conditions set forth above, and under the test criteria employed for this assay, after the administration of 30 mg per kilogram of body weight of a compound of the present invention to the mouse, the number of writhes elicited by a mouse injected with PBQ was equal to, or less than, one-half the median number of writhes recorded for the saline-treated control group of mice that day, as described by Taber in "Predictive Value of Analgesic Assays in Mice and Rats," Advances in Biochemical Psychopharmacology, 8, 191 (1974). […] If this initial screening dose of the test compound produced analgesia in seven of nine or ten mice, then the effect of additional doses of the test compound on the writhing response was evaluated, and then the ED50 value (that dose of a compound which produced analgesia in 50% of the mice to which the compound was administered) was generally calculated. A maximum likelihood function was used to determine the ED50 value. (The slopes of the dose-response curves for all test compounds analyzed were compared as described by Tallarida and Murray, Manual of Pharmacologic Calculations, Page 11 (Springer Verlag, New York, 1981)). The results for the particular compounds of the present invention analyzed in this assay, and discussed in the examples identified below which correspond thereto, are presented in Table 1 hereinbelow. The compounds of the present invention which were tested in this assay, and for which results are presented in Table 1, correspond to the particular examples specified in Table 1. The fractions indicate the number of mice out of nine or ten in which a test compound produced analgesia, and the whole numbers are the calculated ED50 values.

[2] = system: prostaglandin E2 -induced contractions of segments of guinea pig ileum; assay: Prostaglandin (PGE) Antagonism Assay; assay type: cell-based; settings: dose ratio of prostaglandin E2 EC50 doses with/without test compound, initial concentration 3 micromolar
Method: In order to determine the effectiveness of several of the compounds of the present invention ("test compounds") as prostaglandin E2 antagonists,a prostaglandin antagonism assay was conducted, as described below, to determine the ability of these compounds to inhibit prostaglandin E2 -induced contractions of segments of guinea pig ileum. […] Male albino guinea pigs weighing 200 to 500 grams were sacrificed by cervical dislocation. The ilea were then quickly removed from the guinea pigs and placed in a modified Tyrode solution, a solution which is known to those skilled in the art, containing one-half of the usual amount of magnesium ions. Segments of ileum about 2 cm long were then cut and mounted in a 10-mL tissue bath containing the modified Tyrode solution. The solution was maintained at 37° C. and aerated with a gaseous mixture of 95% oxygen and 5% carbon dioxide. Data for a control prostaglandin E2 dose response curve plotting concentration of prostaglandin E2 versus the intensity of contractions, detected isotonically, was then obtained by experimentally adjusting the dose of the prostaglandin E2 being injected into the tissue bath, in a manner known by those of skill in the art. Solutions or suspensions containing an initial concentration (3 micromolar) of a test compound in modified Tyrode solution ("test solutions/suspensions") were then separately substituted for the control bath solution. Each test solution/suspension was then kept in constant contact with the ileum tissue, except for brief periods to drain the bath in preparation for rinsing with fresh test solution/suspension. A second prostaglandin E2 dose response curve was then generated for prostaglandin E2 in the presence of a test compound. A dose ratio (DR) of EC50 doses was then calculated from the results of each test in a manner known by those of skill in the art. A control dose response curve (DRC) is produced in isolated segments of guinea pig ileum mounted in an automated apparatus with six concentrations of prostaglandin E2. A solution or suspension of test compound is substituted for the control bathing solution and is incubated for thirty minutes. An additional prostaglandin E2 dose response curve is produced in the presence of the test compound. A dose ratio is calculated from the EC50 values obtained from duplicate replications on each concentration of the test compound. […] The results of this prostaglandin antagonism assay are presented in Table 2 below in terms of their dose ratio. The compounds of the present invention which were tested in this assay, and for which results are presented in Table 2, correspond to the particular examples specified in Table 2.

[3] = Mus musculus, po, 30 mg per kilogram of body weight 25 min before PBQ i.p., writhes equal to or less than one-half the control median

Row | Molecule | responders at 30 mg/kg [1, 3] [%] | Dose Ratio [2] | also measured
1 | O=C(N1CCC(N2CCCC2)CC1)N1Cc2ccccc2Oc2ccc(Cl)cc21 [Example 34, 8-chloro-10,11-dihydro-10-[[4-(1-pyrrolidinyl)-1-piperidinyl]carbonyl]dibenz[b,f][1,4]oxazepine] | 70 | – | –
2 | CC(C)(C)OC(=O)N1CCN(C(=O)N2Cc3ccccc3Oc3ccc(Cl)cc32)CC1 [Example 20, 1,1-dimethylethyl 4-[(8-chlorodibenz[b,f][1,4]oxazepin-10(11H)-yl)carbonyl]-1-piperazinecarboxylate] | 40 | 8.0 | –
3 | Cl.O=C(N1CCC(N2CCCC2)CC1)N1Cc2ccccc2Oc2ccc(Cl)cc21 [Example 35, 8-chloro-10,11-dihydro-10-[[4-(1-pyrrolidinyl)-1-piperidinyl]carbonyl]dibenz[b,f][1,4]oxazepine, hydrochloride] | – | 1.0 | –
4 | O=C(CCc1cccnc1)N1CCN(C(=O)N2Cc3ccccc3Oc3ccc(Cl)cc32)CC1 [Example 33, 1-[(8-chlorodibenz[b,f][1,4]oxazepin-10(11H)-yl)carbonyl]-4-[(1-oxo-3-(3-pyridinyl)propyl]piperazine, monohydrochloride] | 80 | 6.7 | –
5 | O=C(c1ccco1)N1CCN(C(=O)N2Cc3ccccc3Oc3ccc(Cl)cc32)CC1 [Example 38, 1-[(8-chlorodibenz[b,f][1,4]oxazepin-10(11H)-yl)carbonyl]-4-(2-furanylcarbonyl)piperazine] | 10 | – | –
6 | Cl.O=C(c1cccnc1)N1CCN(C(=O)N2Cc3ccccc3Oc3ccc(Cl)cc32)CC1 [Example 58, 1-[(8-chlorodibenz[b,f][1,4]oxazepin-10(11H)-yl)carbonyl]-4-(3-pyridinylcarbonyl)piperazine, hydrochloride] | 70 | 6.6 | –
7 | CCCN1CCCN(C(=O)N2Cc3ccccc3Oc3ccc(Cl)cc32)CC1 [Example 24, monohydrochloride] | – | 11.9 | ED50 ([1]; Mus musculus, po, PBQ writhing, mice, maximum likelihood function, read-out: calculated ED50 value (dose which produced analgesia in 50% of the mice)): 14.7 mg/kg
8 | 8-chloro-10,11-dihydro-10-[[4-(2-pyridinyl)-1-piperazinyl]carbonyl]dibenz[b,f][1,4]oxazepine, monohydrochloride [Example 11] | – | – | number of mice out of nine or ten in which a test compound produced analgesia ([1]; 30 mg per kilogram of body weight 25 min before PBQ i.p., writhes equal to or less than one-half the control median): 1/10
9 | Cl.O=C(Cc1ccncc1)N1CCCN(C(=O)N2Cc3ccccc3Oc3ccc(Cl)cc32)CC1 [Example 81, 1-[(8-chlorodibenz[b,f][1,4]oxazepin-10(11H)-yl)carbonyl]hexahydro-4-(4-pyridinylacetyl)-1H-1,4-diazepine, monohydrochloride] | – | 32 | –
10 | Cl.O=C(N1CCN(CCc2ccccc2)CC1)N1Cc2ccccc2Oc2ccc(Cl)cc21 [Example 40, 8-Chloro-10,11-dihydro-10-[[4-(2-phenylethyl)-1-piperazinyl]carbonyl]dibenz[b,f][1,4]oxazepine, monohydrochloride] | 20 | 4.1 | –
11 | O=C(Cc1ccncc1)N1CCN(C(=O)N2Cc3ccccc3Oc3ccc(Cl)cc32)CC1 [Example 79, 1-[(8-Chlorodibenz[b,f][1,4]oxozepin-10(11H)-yl)carbonyl]-4-[1-oxo-2(4-pyridinyl)-ethyl]piperazine, monohydrochloride, monohydrate] | – | 10 | –
12 | CCOC(=O)C1CN(C(=O)N2Cc3ccccc3Oc3ccc(Cl)cc32)CCN1c1ccccc1 (stereo not drawn) [Example 50, ethyl 4-[(8-chlorodibenz[b,f][1,4]oxazepin-10(11H)-yl)carbonyl]-1-phenyl-2-piperazinecarboxylate] | – | 2.7 | –
13 | O=C(N1Cc2ccccc2Oc2ccc(Cl)cc21)N1CCCCC1CCN1CCCC1 (stereo not drawn) [Example 49, 8-chloro-10,11-dihydro-10-[[2-[2-(1-pyrrolidinyl)ethyl]-1-piperidinyl]carbonyl]dibenz[b,f][1,4]oxazepine, hydrochloride] | 20 | – | –
